These results are taken from ChEMBL document CHEMBL3751802, “Identification of six new lupane-type triterpenoids from Acanthopanax koreanum leaves and their tyrosinase inhibitory activities” (Bioorg Med Chem Lett, 2016).

One may read the inhibition as the percentage by which the read-out fell short of the control. As usually defined, the IC50 is the concentration at which inhibition is half-maximal. Read a low IC50 as inhibition by little substance.

Some results are limits rather than exact numbers.

Assay [1] deals with T1, Tyrosinase (Agaricus bisporus) (UniProt O42713).
T1 sequence (whole entry): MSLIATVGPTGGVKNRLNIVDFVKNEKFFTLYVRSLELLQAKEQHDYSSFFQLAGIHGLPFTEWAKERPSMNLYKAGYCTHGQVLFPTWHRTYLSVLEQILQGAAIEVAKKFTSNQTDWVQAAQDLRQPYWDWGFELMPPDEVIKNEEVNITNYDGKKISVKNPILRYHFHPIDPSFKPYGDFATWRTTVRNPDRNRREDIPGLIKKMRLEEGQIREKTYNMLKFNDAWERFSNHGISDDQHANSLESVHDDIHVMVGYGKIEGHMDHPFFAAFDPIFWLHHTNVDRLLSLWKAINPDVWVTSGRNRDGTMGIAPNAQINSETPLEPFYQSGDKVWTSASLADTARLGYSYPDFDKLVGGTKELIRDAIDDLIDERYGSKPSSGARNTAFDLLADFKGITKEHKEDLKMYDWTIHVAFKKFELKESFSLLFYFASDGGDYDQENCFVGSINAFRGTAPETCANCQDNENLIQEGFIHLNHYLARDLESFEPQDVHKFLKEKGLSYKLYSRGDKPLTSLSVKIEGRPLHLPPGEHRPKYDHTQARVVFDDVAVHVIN
Briefly: Inhibition of mushroom tyrosinase using L-tyrosine as substrate at >12.5 uM measured every 1 min for 20 mins by spectrophotometric assay relative to control.

The target in assay [2] is T2, Tyrosinase (Agaricus bisporus, UniProt O42713).
T2 sequence (O42713 whole entry): T1 sequence (whole entry)
Kind of assay: Inhibition of mushroom tyrosinase using L-tyrosine as substrate measured every 1 min for 20 mins by spectrophotometric assay.

In assay [1], `C=C(CO)[C@@H]1CC[C@]2(C(=O)O)CC[C@]3(C)[C@H](C[C@@H](O)[C@@H]4[C@@]5(C)CC[C@@H](O)[C@@](C)(C(=O)O)[C@@H]5CC[C@]43C)[C@@H]12` came in with an inhibition of less than 100%.

For the compound `C[C@H](CO)[C@@H]1CC[C@]2(C(=O)O)CC[C@]3(C)[C@H](CC[C@@H]4[C@@]5(C)CC[C@@H](O)[C@@](C)(C=O)[C@@H]5C[C@H](O)[C@]43C)[C@@H]12`, in assay [1], the inhibition was less than 100%.

The compound `C=C(CO)[C@@H]1CC[C@]2(C(=O)O)CC[C@]3(C)[C@H](C[C@@H](O)[C@@H]4[C@@]5(C)CC[C@@H](O)C(C)(C)[C@@H]5CC[C@]43C)[C@@H]12` came in with an inhibition in assay [1] of less than 100%.

With `C=C(C)[C@@H]1CC[C@]2(C(=O)O)CC[C@]3(C)[C@H](C[C@@H](O)[C@@H]4[C@@]5(C)CC[C@@H](O)C(C)(C=O)[C@@H]5CC[C@]43C)[C@@H]12` (some centres not stated), the inhibition in assay [1] is less than 100%.

`CC1=CC[C@@H](C(C)(C)O[C@@H]2O[C@H](CO)[C@@H](O)[C@H](O)[C@H]2O)CC1`: in assay [2], the IC50 was found to be 16.9 µM. The same compound yielded an inhibition in assay [1] of less than 100%.

Compound `C=C(CO)[C@@H]1CC[C@]2(C(=O)O)CC[C@]3(C)[C@H](C[C@@H](O)[C@@H]4[C@@]5(C)CC[C@@H](O)[C@@](C)(C=O)[C@@H]5CC[C@]43C)[C@@H]12` gave an IC50 in assay [2] of 63.5 µM. Moreover, the inhibition in assay [1] was less than 100%.

Regarding `C[C@H](C=O)[C@@H]1CC[C@]2(C(=O)O)CC[C@]3(C)[C@H](CC[C@@H]4[C@@]5(C)CC[C@@H](O)[C@@](C)(C(=O)O)[C@@H]5CC[C@]43C)[C@@H]12`, the inhibition in assay [1] is less than 100%.

Regarding `C[C@@]12CCC[C@@](C)(C(=O)O[C@@H]3O[C@H](CO)[C@@H](O)[C@H](O)[C@H]3O)[C@H]1CC[C@@]13C[C@H](CC[C@H]12)[C@@](O)(CO)C3`, the inhibition in assay [1] was less than 100%.

The compound `C[C@]12CC[C@@H](O)[C@@](C)(C(=O)O)[C@@H]1CC[C@]1(C)[C@@H]2CC[C@@H]2[C@H]3[C@H]([C@](C)(O)CO)CC[C@]3(C(=O)O)CC[C@]21C` registered an IC50 in assay [2] of 8.61 µM. In assay [1], this compound displayed an inhibition of less than 100%.

In assay [1], `C=C(C)[C@@H]1CC[C@]2(C(=O)O)CC[C@]3(C)[C@H](CC[C@@H]4[C@@]5(C)CC[C@@H](O)C(C)(C(=O)O)[C@@H]5CC[C@]43C)[C@@H]12` (some centres not stated) yielded an inhibition of less than 100%.

For `COC(OC)[C@H](C)[C@@H]1CC[C@]2(C(=O)O)CC[C@]3(C)[C@H](CC[C@@H]4[C@@]5(C)CC[C@@H](O)[C@@](C)(C(=O)O)[C@@H]5CC[C@]43C)[C@@H]12`, the inhibition in assay [1] was less than 100%.

On to `CC(=O)[C@@H]1CC[C@]2(C(=O)O)CC[C@]3(C)[C@H](C[C@@H](O)[C@@H]4[C@@]5(C)CC[C@@H](O)C(C)(C(=O)O)[C@@H]5CC[C@]43C)[C@@H]12` (some centres not stated), for which the inhibition in assay [1] was less than 100%.

On to `C=C(C)[C@@H]1CC[C@]2(C(=O)O)CC[C@]3(C)[C@H](CC[C@@H]4[C@@]5(C)CC[C@@H](O)[C@@](C)(C=O)[C@@H]5CC[C@]43C)[C@@H]12`, for which the half-maximal inhibitory concentration (IC50) in assay [2] amounted to 25.8 µM. Further, the inhibition in assay [1] was less than 100%.
